Results taken from PMC7143835, “Anti-Hyperglycemic Effects of Green Crab Hydrolysates Derived by Commercially Available Enzymes” (Foods, 2020).
≈ marks a conversion by molar mass, not a printed value.

Molecular target: T1, rat intestinal α-glucosidase
T1 construct: gene Si; crude buffer extract of rat intestinal acetone powder; mixture of brush-border alpha-glucosidases
Assay: p-nitrophenyl glucopyranoside hydrolysis, absorbance at […] nm
Type: biochemical
Conditions: 5 mM p-NPG stock (printed as beta anomer; 50 µL in 200 µL assay), 0.1 M sodium phosphate pH 6.9, 0.9% NaCl, 37 °C, 10 min preincubation; positive control; crude extract

C[C@H]1O[C@H](O[C@H]2[C@H](O)[C@@H](O)[C@@H](O[C@H]3[C@H](O)[C@@H](O)C(O)O[C@@H]3CO)O[C@@H]2CO)[C@H](O)[C@@H](O)[C@@H]1N[C@H]1C=C(CO)[C@@H](O)[C@H](O)[C@H]1O (stereo partly shown) [acarbose]
IC50: 27 µg/mL (≈ 41.8 µM)
